Results taken from patent US6583179B2, “Substituted aminoalkylamide derivatives as antagonists of follicle stimulating hormone” (Ortho-McNeil Pharmaceutical, Inc., priority 1999, dated 2003).

Columns and labels:
human FSH receptor = biological target: T1, human FSH receptor (Homo sapiens, UniProt P23945); test: hFSHR CHO cAMP assay (rhFSHR-cLUC cells, FSH-stimulated cAMP, radioimmunoassay); assay type: cell-based; conditions: inhibition of cAMP produced by EC70 dose of FSH (4.85 nM); maximum concentration 50 μM
T1 construct: expressed in transfected cells; host or cells: Chinese Hamster Ovary cells (K-1; ATCC), line rhFSHR-cLUC
T1 sequence (P23945 18-695): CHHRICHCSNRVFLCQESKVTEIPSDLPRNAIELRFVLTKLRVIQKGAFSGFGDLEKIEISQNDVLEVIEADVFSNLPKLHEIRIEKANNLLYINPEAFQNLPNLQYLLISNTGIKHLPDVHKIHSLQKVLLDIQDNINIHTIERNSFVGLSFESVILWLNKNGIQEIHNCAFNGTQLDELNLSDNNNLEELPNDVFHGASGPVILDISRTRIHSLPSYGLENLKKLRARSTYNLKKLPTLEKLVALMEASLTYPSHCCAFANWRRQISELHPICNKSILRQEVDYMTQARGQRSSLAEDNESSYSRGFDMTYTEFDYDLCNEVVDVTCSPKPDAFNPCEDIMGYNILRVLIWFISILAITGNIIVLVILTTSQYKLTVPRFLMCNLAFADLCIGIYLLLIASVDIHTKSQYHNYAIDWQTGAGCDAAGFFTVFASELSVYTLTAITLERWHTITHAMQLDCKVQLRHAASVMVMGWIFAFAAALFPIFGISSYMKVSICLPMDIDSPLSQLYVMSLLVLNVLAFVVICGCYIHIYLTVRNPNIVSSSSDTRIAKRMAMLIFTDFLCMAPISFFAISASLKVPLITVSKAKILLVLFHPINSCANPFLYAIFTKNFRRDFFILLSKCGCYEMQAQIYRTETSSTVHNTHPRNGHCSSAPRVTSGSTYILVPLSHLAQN
From the text: Minimum Essential Medium-Alpha (MEM-alpha), fetal bovine serum (FBS), penicillin, streptomycin, geneticin, trypsin-EDTA, Hanks' Balanced Salt Solution (no Calcium chloride, Magnesium chloride, Magnesium sulfate, or phenol red; Ca-Mg free HBSS) were purchased from Gibco BRL (Gaithersburg, Md.). The cells used for the FSH bioassay (rhFSHR-cLUC) were Chinese Hamster Ovary cells (K-1; ATCC) stably transformed with human FSH receptor (pSVK-FSHr) and a cAMP luciferase reporter gene (responsive CGα-180LUC). Follicle Stimulating Hormone (Metrodin; Fertinex) was purchased from Serono, Ltd. (Norwell, Mass.).
The rhFSHR-cLUC cell cultures were maintained in MEM-Alpha supplemented with 10% heat-inactivated FBS (HIFBS), 100 U/ml penicillin, 100 μg/mL streptomycin, and included 0.1 g/L geneticin for stable cell selection.
Forty-eight hours after the cells were plated in sterile 96-well culture plates (Corning, Corning, N.Y.) the spent media was removed and 50 μl assay media (modified growth media with 2% HIFBS) containing 2 mM IBMX (3-isobutyl-1-methyl-xanthine) was added to the cells. Compounds (25 μl) in the appropriate concentration were added followed 5 minutes later by an EC70 dose of FSH (25 μl; 160 ng/ml; 4.85 nM). After 10 minutes @ 22.5° C. (room temperature) the reaction was terminated by addition of 25 μL 0.5 N hydrochloric acid to each well. The amount of cAMP produced was measured by radioimmunoassay in a FlashPlate (DuPont, Boston, Mass.). To each flash plate 60 μL flash plate buffer was added followed by 40 μL acidified cell sample or cAMP standard, followed with the addition of 100 μl ^125l-cAMP trace. The FlashPlates were sealed, incubated overnight @ room temperature, and counted in a Packard TopCount (Packard Instrument Co., Meriden, Conn.). The cAMP radioimmunoassay results were calculated using DPM conversion and log-logit transformation of % binding (Excel program).
(§1) Test compounds were solubilized in 30% dimethyl sulfoxide (DMSO) at a concentration of 10 mM before diluting to appropriate concentrations in assay medium. The final DMSO concentration in the treated cells and in the control cells was 0.75%.
For individual experiments, a set of samples were tested including a vehicle control (assay buffer), a reference compound (hFSH) at a range of concentrations designed to elicit a minimal to maximal response, and several concentrations of test compounds together with an EC70 concentration of standard (hFSH challenge). Each compound was performed in duplicates for the primary evaluation and quadruplicates for the dose-ranging experiments. The cAMP radioimmunoassay raw data (pmol) were calculated to provide average pmol cAMP produced/ml and the percent inhibition was calculated as shown below.
% Inh=[1−(Avg.pmoltest compound+standard)/(Avg.pmolstandard)]×100
EC50 values were calculated from an analysis of the concentration-inhibition data using a linear analysis of the data transformed to a log-logit format.

Rat Granulosa Cell = test: Rat granulosa cell FSH-stimulated cAMP production; assay type: cell-based; conditions: inhibition of cAMP produced by EC70 dose of FSH (1.4 nM), maximum concentration 50 μM
Protocol: Insulin, diethylstilbesterol, androstenedione, forskolin and DMSO were purchased from Sigma (St. Louis, Mo.). Fungizone, penicillin/streptomycin, charcoal-treated heat inactivated fetal bovine serum (CT-HI-FBS) and Dulbecco's Modified Eagle Medium:Hams F12 medium containing 15 mM Hepes and L-glutamine (DMEM:F12), were purchased from GIBCO BRL (Grand Island, N.Y.).
Ovine FSH (NIADDK-oFSH-17; FSH potency=20 NIH-FSH-S1 U/mg; LH contamination=0.04 times NIH-LH-S1) was received from Ogden Bioservices Corporation, Rockville, Md. Human FSH (Fertinex), was purchased from Serono Pharmaceutical (Framingham, Mass.). Human chorionic gonadotropin (hCG) was purchased from Sigma (St Louis, Mo.).
Immature intact female rats (Wistar-derived strain; 21-23 days old) were implanted with a single pellet (Innovative Research of America, Sarasota, Fla.) containing 2.5 mg diethylstilbesterol (DES) for 3 days. On the third day, the animals were sacrificed, the ovaries were removed, and the granulosa cells were isolated essentially as described in Haynes-Johnson et al., Biol. Reprod., 61 (1), 147-153, (1999). Granulosa cells were plated at a density of 300,000 cells per ml with 0.2 ml added to each well of 96 well culture dishes (Corning, N.Y.). Cultures were incubated at 37° C. in a humidified incubator (95% air, 5% CO2) overnight (18 hours).
Androstenedione (100,000X) was prepared by dissolving the steroid in 100% ethanol, and was subsequently diluted to a final concentration of 10^−7M containing 0.1% ethanol in assay media. The assay media was serum-free, DES-free, insulin-free media, prepared by adding 5 mL pen-strep,1.5 mL fungizone and 5 μL androstenedione to 493.5 mL DMEM F-12 media.
as §1
Test plates containing the granulosa cells were preincubated for 18 hours at 37° C. with 95% air, 5% CO2, 100% humidity. The spent media was removed and 50 μl assay media (DMEM:F12) containing 2 mM IBMX (3-isobutyl-1-methyl-xanthine) was added to the cells. Compounds (25 μl) in the appropriate concentration were added followed 5 minutes later by an EC70 dose of FSH (25 μl; 50 ng/ml; 1.4 nM). After 30 minutes @ 22.5° C. (room temperature) the reaction was terminated by addition of 25 μL 0.5 N hydrochloric acid to each well. The amount of cAMP produced was measured by radioimmunoassay in a FlashPlate (DuPont, Boston, Mass.). To each flash plate 60 μL flash plate buffer was added followed by 40 μL acidified cell sample or cAMP standard, followed with the addition of 100 μl ^125l-cAMP trace. The FlashPlates were sealed, incubated overnight @ room temperature, and counted in a Packard TopCount (Packard Instrument Co., Meriden, Conn.). The cAMP radioimmunoassay results were calculated using DPM conversion and log-logit transformation of % binding (Excel program).

COc1ccccc1CCN(CC(=O)NCc1ccc(CN)cc1)S(=O)(=O)c1ccc(-c2cccc(F)c2)cc1 [Compound 14]
EC50 (human FSH receptor): 740 nM
EC50 (Rat Granulosa Cell): 1560 nM

COc1cccc(-c2ccc(S(=O)(=O)N(CCc3ccccc3OC)CC(=O)NCc3ccc(CN)cc3)cc2)c1 [Compound 16]
EC50 (human FSH receptor): 1130 nM
EC50 (Rat Granulosa Cell): 510 nM

COc1cccc(CN(CC(=O)NCC2CCC(CN)CC2)S(=O)(=O)c2ccc(-c3cccc(OC)c3)cc2)c1 (stereo not shown) [Compound 24]
EC50 (human FSH receptor): 2330 nM
EC50 (Rat Granulosa Cell): 1070 nM

COc1ccccc1CCN(CC(=O)NCC1CCC(CN)CC1)S(=O)(=O)c1ccc(-c2cccc(C(F)(F)F)c2)cc1 (stereo not shown) [Compound 29]
EC50 (human FSH receptor): 3090 nM
EC50 (Rat Granulosa Cell): 2060 nM

COc1ccccc1CCN(CC(=O)NCC1CCC(CN)CC1)S(=O)(=O)c1ccc(-c2ccccc2Cl)cc1 (stereo not shown) [Compound 31]
EC50 (human FSH receptor): 910 nM
EC50 (Rat Granulosa Cell): 1970 nM

COc1ccccc1CCN(CC(=O)NCC1CCC(CN)CC1)S(=O)(=O)c1ccc(-c2ccccc2C)cc1 (stereo not shown) [Compound 32]
EC50 (human FSH receptor): 310 nM
EC50 (Rat Granulosa Cell): 160 nM

COc1ccccc1CCN(CC(=O)NCC1CCC(CN)CC1)S(=O)(=O)c1ccc(-c2ccccc2OC)cc1 (stereo not shown) [Compound 33]
EC50 (human FSH receptor): 420 nM
EC50 (Rat Granulosa Cell): 180 nM

COc1ccccc1CN(CC(=O)NCC1CCC(CN)CC1)S(=O)(=O)c1ccc(-c2cnc(SC)nc2)s1 (stereo not shown) [Compound 73]
EC50 (human FSH receptor): 4950 nM
EC50 (Rat Granulosa Cell): 1450 nM

COc1ccccc1CCN(CC(=O)NC1CCC(N)CC1)S(=O)(=O)c1ccc(-c2ccccc2C)cc1 (stereo not shown) [Compound 94]
EC50 (human FSH receptor): 34500 nM
EC50 (Rat Granulosa Cell): 8910 nM

COc1ccccc1CCN(CC(=O)NCc1ccc(CN)cc1)S(=O)(=O)c1ccc(Cl)s1 [Compound 114]
EC50 (human FSH receptor): 9780 nM
EC50 (Rat Granulosa Cell): 8970 nM

C[C@@H](CN(CC(=O)NCc1ccc(CN)cc1)S(=O)(=O)c1ccc(-c2cccc(F)c2)cc1)c1ccccc1 [Compound 203]
EC50 (human FSH receptor): 80 nM
EC50 (Rat Granulosa Cell): 60 nM

C[C@H](CN(CC(=O)NCc1ccc(CN)cc1)S(=O)(=O)c1ccc(-c2ccccc2Cl)cc1)c1ccccc1 [Compound 208]
EC50 (human FSH receptor): 60 nM
EC50 (Rat Granulosa Cell): 40 nM

COc1ccccc1CCN(CC(=O)NCc1ccc(CN)cc1)S(=O)(=O)c1ccc(-c2ccccc2C)s1 [Compound 272]
EC50 (human FSH receptor): 550 nM
EC50 (Rat Granulosa Cell): 600 nM

Cc1ccccc1-c1ccc(S(=O)(=O)N(CC(=O)NCC2CCCC(CN)C2)C[C@H](C)c2ccccc2)cc1 (stereo partly shown) [Compound 384]
EC50 (human FSH receptor): 270 nM
EC50 (Rat Granulosa Cell): 80 nM
